Measurements reported in patent US7056928B2, “Pyrimidine derivatives as selective inhibitors of COX-2” (Glaxo Group Limited, priority 2001, dated 2006).

Columns and labels:
[1] = biological target: T1, microsomal h-COX2 (Homo sapiens, UniProt P35354); test: Microsomal assay, inhibition of h-COX2; type: biochemical; conditions: microsomal preparation from baculovirus infected SF9 cells; PGE2 by EIA; read-out: COX-2: IC50
T1 construct: made in house; host or cells: baculovirus infected SF9 cells (microsomal preparation)
T1 sequence (P35354 18-604): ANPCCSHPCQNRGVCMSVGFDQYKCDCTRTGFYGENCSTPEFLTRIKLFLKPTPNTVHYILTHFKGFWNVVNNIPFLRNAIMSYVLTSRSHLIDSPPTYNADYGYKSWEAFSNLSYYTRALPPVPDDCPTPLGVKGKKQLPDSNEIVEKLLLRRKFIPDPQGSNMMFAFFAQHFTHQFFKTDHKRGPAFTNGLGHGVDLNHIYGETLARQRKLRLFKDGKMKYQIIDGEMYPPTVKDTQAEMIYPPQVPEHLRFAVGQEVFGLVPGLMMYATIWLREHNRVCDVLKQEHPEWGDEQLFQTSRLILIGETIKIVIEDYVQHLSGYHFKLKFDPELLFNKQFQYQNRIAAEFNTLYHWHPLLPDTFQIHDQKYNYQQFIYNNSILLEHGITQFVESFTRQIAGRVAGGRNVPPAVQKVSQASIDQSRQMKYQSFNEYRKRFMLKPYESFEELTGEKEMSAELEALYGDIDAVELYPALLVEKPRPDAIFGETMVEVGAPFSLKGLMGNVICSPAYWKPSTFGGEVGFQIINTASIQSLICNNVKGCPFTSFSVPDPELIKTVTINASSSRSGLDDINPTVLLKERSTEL
Procedure: (§1) Inhibitory activity against microsomal h-COX2 was assessed against a microsomal preparation from baculovirus infected SF9 cells. An aliquot of microsomal preparation was thawed slowly on ice and a 1/40,000 dilution prepared from it into the assay buffer (sterile water, degassed with argon containing 100 mM HEPES (pH 7.4), 10 mM EDTA (pH7.4), 1 mM phenol, 1 mM reduced glutathione, 20 mg/ml gelatin and 0.001 mM Hematin). Once diluted the enzyme solution was then sonicated for 5 seconds (Branson sonicator, setting 4, 1 cm tip) to ensure a homogeneous suspension. 155 μl enzyme solution was then added to each well of a 96-well microtitre plate containing either […] test compound (40×required test concentration) or 5 μl DMSO for controls. Plates were then mixed and incubated at room temperature for 1 hour. Following the incubation period, 40 μl of 0.5 μM arachidonic acid was added to each well to give a final concentration of 0.1 μM. Plates were then mixed and incubated for exactly 10 minutes (room temperature) prior to addition of 25 μl 1M HCl (hydrochloric acid) to each well to stop the reaction. 25 μl of 1M NaOH (sodium hydroxide) was then added to each well to neutralise the solution prior to determination of PGE2 levels by enzyme immunoassay (EIA).
(§2) The following IC50 value for inhibition of COX-2 and COX-1 were obtained from the microsomal assay for compounds of the invention: […]

[2] = biological target: COX-1 (Homo sapiens, UniProt P23219); test: Microsomal assay, inhibition of COX-1; type: biochemical
Chain of COX-1 (P23219 24-599): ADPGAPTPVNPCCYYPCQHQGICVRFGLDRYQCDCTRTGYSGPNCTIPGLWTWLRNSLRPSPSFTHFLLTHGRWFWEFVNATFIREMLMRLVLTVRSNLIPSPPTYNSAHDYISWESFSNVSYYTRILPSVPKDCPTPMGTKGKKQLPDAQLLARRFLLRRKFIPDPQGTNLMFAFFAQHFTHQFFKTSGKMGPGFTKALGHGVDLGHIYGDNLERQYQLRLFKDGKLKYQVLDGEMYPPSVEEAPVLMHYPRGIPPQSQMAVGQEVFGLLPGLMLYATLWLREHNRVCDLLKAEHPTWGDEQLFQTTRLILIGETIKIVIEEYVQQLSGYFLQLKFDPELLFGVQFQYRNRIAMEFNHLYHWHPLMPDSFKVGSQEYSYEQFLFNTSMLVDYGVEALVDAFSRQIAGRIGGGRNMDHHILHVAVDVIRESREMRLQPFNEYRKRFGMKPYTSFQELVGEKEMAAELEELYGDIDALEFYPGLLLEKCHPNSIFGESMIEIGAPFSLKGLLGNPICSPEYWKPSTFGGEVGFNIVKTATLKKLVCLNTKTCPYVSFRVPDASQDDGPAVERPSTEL
Procedure: as §1, §2

- IC50 [1]: 22 nM
- IC50 [2]: 17.7 µM
Structure (SMILES): CS(=O)(=O)c1ccc(-c2cc(CF)nc(NCc3ccccc3)n2)cc1 [Example 1, 4-[4-(Methylsulfonyl)phenyl]-N-(Phenylmethyl)-6(fluoromethyl)pyrimidin-2-amine]
